Data as given in patent publication US5866380A, “Methods for bioconversion of ferulic acid to vanillic acid or vanillin and for the bioconversion of vanillic acid to vanillin using filamentous fungi” (Institut National De La Recherche Agronomique-I.N.R.A., priority 1994, dated 1999).

Columns and labels:
fungi = experiment: toxicity of ferulic acid, vanillic acid and vanillin to the fungi; type: cell-based, filamentous fungi; conditions: for concentration toxic to the fungi: concentration in the culture
[1] = binding of produced vanillin to XAD2 resin in Phanerochaete chrysosporium culture (experiment 2); type: physicochemical; conditions: experiment 2, XAD2 10% (weight/volume), 6 days of growth
Procedure: The strain used is the Phanerochaete chrysosporium strain MIC 247, deposited on 31st Aug. 1994 with the Collection Nationale de Culture de Microorganismes under the number I-1471. This strain was cultured as described in Example 1 above.
Vanillic acid was added sequentially, namely: 0.3 g/l at the end of 3 days of culture, then 0.3 g/l every day.
For experiment 2, sterile resin XAD2 (Amberlite) is added in the proportion of 10% (weight/volume) after 3 days+6 h of culture of the fungus, that is to say 6 h after adding vanillic acid (at a concentration of 300 mg/l).
Vanillic acid and its metabolites are assayed as described in Example 1 above.

[2] = binding of vanillin by nonionic resin XAD2; type: physicochemical

Compound	concentration toxic to the fungi (fungi)	vanillin produced that has been bound to the resin [1]	toxicity for the metabolism of the fungus (in words) (fungi; strain that accumulates vanillin (Nidulariales))	vanillin bound by the resin [2]
COc1cc(/C=C/C(=O)O)ccc1O [ferulic acid]	above 2 g/l	–	–	–
COc1cc(C(=O)O)ccc1O [vanillic acid]	above 2 g/l	–	–	–
COc1cc(C=O)ccc1O [vanillin]	above 2 g/l	94%	very quickly becomes toxic for the metabolism of the fungus	98%
